The test system of one assay is mast cells. The conditions noted are these: without direct antihistamine effect; inhalative and intravenous application; cited from earlier work.
The subject of assay [1] is allergically caused conjunctival inflammation. The following applies: high-dosage, topical application to the eye, animals; cited from earlier work.
A short description of assay [2]: tear film tearing time (fluorescein, slit lamp). The class given is in vivo. The conditions noted are these: concentration of 0.1% by weight to 0.3% by weight. From the text: A further diagnostic parameter in regard to diagnosis of the “dry eye” syndrome is the tear film tearing time which makes it possible to provide information about the quality of the tear fluid. In that case for example the tear film is dyed with fluorescein and the patient is then asked to keep the eyes open as long as possible without a blink reflex. A slit lamp is then used to establish when the tear film tears open for the first time. If the period of time is less than 10 seconds, there is the suspicion of the “dry eye” syndrome.

A further assay concerns dry eyes. Briefly: subjective feeling of patients in treatment of dry eyes. The class given is in vivo. The conditions noted are these: 0.1% by weight in the composition. From the text:
Aqueous sodium hyaluronate solutions are fluids with non-Newtonian flow properties. By virtue of that physical property, aqueous sodium hyaluronate solutions are excellently well suited as slip and lubricating agents with a good cling effect and a prolonged residence time on the conjunctival and corneal epithelia, without adversely affecting visual efficiency.

In assay [3] the test system is cornea epithelium cells of rabbits. The assay is described as follows: epithelium cell migration. The assay is classed as cell-based. The following applies: 0.1% by weight solution.

This is an account of results in patent publication US20050043271A1, “Heparin-containing ophthalmic agent” (priority 2001, published 2005).

Consider heparin, for which, in the assay on mast cells, the “degranulation, caused by antigens, of mast cells” value was “inhibits degranulation”. In addition, in assay [1], the “treatment of allergically caused conjunctival inflammation” value was “effective”.
On to hyaluronic acid, for which, in assay [2], the “prolonging the tear film tearing time” value was “highly effective”.
For the substance sodium hyaluronate, in the assay on dry eyes, the “subjective feeling of the patients” value is reported as “considerably improves”. For the same substance, the epithelium cell migration result in assay [3] is listed as “increased epithelium cell migration”.
